Assay results published in ChEMBL document CHEMBL5032513, “Propionamide Derivatives as Dual μ-Opioid Receptor Agonists and σ1 Receptor Antagonists for the Treatment of Pain” (J Med Chem, 2021).

Experiments:
[1] = AUC(0 to t) in CD-1 mouse at 40 mg/kg, ip by HPLC-MS/MS analysis; format: ADME, organism-based; set-up: dose 40 mg/kg; conditions: in vivo
[2] = AUC in CD-1 mouse at 40 mg/kg, ip by HPLC-MS/MS analysis; format: ADME, organism-based; set-up: dose 40 mg/kg; conditions: in vivo
[3] = AUC(0 to t) in CD-1 mouse at 10 mg/kg, po by HPLC-MS/MS analysis; format: ADME, organism-based; set-up: dose 10 mg/kg; conditions: in vivo
[4] = AUC in CD-1 mouse at 1 mg/kg, iv by HPLC-MS/MS analysis; format: ADME, organism-based; set-up: dose 1 mg/kg; conditions: in vivo
[5] = Half life in CD-1 mouse at 1 mg/kg, iv by HPLC-MS/MS analysis; format: ADME, organism-based; conditions: in vivo
[6] = Clearance in CD-1 mouse at 1 mg/kg, iv by HPLC-MS/MS analysis; format: ADME, organism-based; conditions: in vivo
[7] = Bioavailability in CD-1 mouse plasma at 40 mg/kg, ip by HPLC-MS/MS analysis; format: ADME, organism-based
[8] = AUC in Wistar rat plasma at 40 mg/kg, ip; format: ADME, organism-based; set-up: dose 40 mg/kg
[9] = AUC(0 to t) in CD-1 mouse at 1 mg/kg, iv by HPLC-MS/MS analysis; format: ADME, organism-based; set-up: dose 1 mg/kg; conditions: in vivo
[10] = Cmax in CD-1 mouse at 40 mg/kg, ip by HPLC-MS/MS analysis; format: ADME, organism-based; set-up: route intraperitoneal, dose 40 mg/kg; conditions: in vivo
[11] = Tmax in CD-1 mouse at 10 mg/kg, po by HPLC-MS/MS analysis; format: ADME, organism-based; conditions: in vivo
[12] = Tmax in CD-1 mouse at 40 mg/kg, ip by HPLC-MS/MS analysis; format: ADME, organism-based; conditions: in vivo
[13] = Dissociation constant, pKa of compound; format: physicochemical
[14] = Cmax in CD-1 mouse at 10 mg/kg, po by HPLC-MS/MS analysis; format: ADME, organism-based; set-up: route oral, dose 10 mg/kg; conditions: in vivo
[15] = Distribution coefficient, logD of compound; format: physicochemical; conditions: octanol/water
[16] = Volume of distribution at steady state in CD-1 mouse at 1 mg/kg, iv by HPLC-MS/MS analysis; format: ADME, organism-based; conditions: in vivo, read-out: Vdss
[17] = Lipophilicity, logP of compound; format: physicochemical; conditions: octanol/water
[18] = Half life in CD-1 mouse at 40 mg/kg, ip by HPLC-MS/MS analysis; format: ADME, organism-based; conditions: in vivo
[19] = Oral bioavailability in CD-1 mouse plasma at 10 mg/kg by HPLC-MS/MS analysis; format: ADME, organism-based
[20] = Apparent permeability across apical to basolateral side in human Caco-2 cells; format: ADME, cell-based
[21] = AUC in Wistar rat brain at 40 mg/kg, ip; format: ADME, organism-based; set-up: dose 40 mg/kg

SMILES: CCC(=O)N(CC1(N2CCN(CC(C)C)CC2)CCOCC1)c1cccc(C(F)(F)F)n1
- AUC(0-t) [1]: 5950 ng·h/mL
- AUC [2]: 5960 ng·h/mL
- AUC(0-t) [3]: 122 ng·h/mL
- AUC [4]: 93 ng·h/mL
- half-life [5]: 24 min
- clearance [6]: 180 mL/min/kg
- bioavailability [7]: > 100%
- AUC [8]: 2810 ng·h/mL
- AUC(0-t) [9]: 92 ng·h/mL
- Cmax [10]: 11300 ng/mL
- Tmax [11]: 30 min
- Tmax [12]: 4.8 min
- pKa [13]: 8.9
- Cmax [14]: 130 ng/mL
- logD [15]: 2.2
- Vd [16]: 2.9 L/kg
- logP [17]: 3.7
- half-life [18]: 36 min
- bioavailability [19]: 13%
- Papp A→B [20]: 16.9 ×10⁻⁶ cm/s
- AUC [21]: 2430 ng·h/mL
